For assay [1], the target named is T1, human adenosine A2b receptor (Homo sapiens, UniProt P29275).
T1 sequence (P29275 1-332): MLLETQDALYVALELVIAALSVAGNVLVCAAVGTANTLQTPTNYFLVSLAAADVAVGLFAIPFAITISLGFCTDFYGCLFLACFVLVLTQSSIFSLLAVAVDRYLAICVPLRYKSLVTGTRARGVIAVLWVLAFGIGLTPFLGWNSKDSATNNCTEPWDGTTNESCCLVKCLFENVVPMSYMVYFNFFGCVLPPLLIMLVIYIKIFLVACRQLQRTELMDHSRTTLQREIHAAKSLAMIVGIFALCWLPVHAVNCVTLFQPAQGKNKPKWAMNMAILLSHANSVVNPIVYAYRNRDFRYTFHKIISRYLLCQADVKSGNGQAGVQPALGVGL
Put plainly: Adenosine A2b receptor whole cell cyclic AMP assay. As to conditions: for inhibition at 10 µM: HEK293, 1 h, read-out: A2b @ 10 μM Adenosine (A2b cAMP IC50).

The target of assay [2] is human adenosine A2a receptor (Homo sapiens, UniProt P29274). The assay can be described thus: Adenosine A2a receptor whole cell cyclic AMP assay. As to conditions: for inhibition at 10 µM: HEK293, 1 h, read-out: A2a @ 100 μM Adenosine (A2a cAMP IC50).
Setting [3] is: A2a @ 1 μM Adenosine (A2a cAMP IC50), HEK293 cells stably expressing human A2a, 1 μM adenosine, 1 hour compound treatment.
Where [4] appears, read: A2a @ 100 μM Adenosine (A2a cAMP IC50), HEK293 cells stably expressing human A2a, 100 μM adenosine, 1 hour compound treatment.

This note sets out measurements from patent US12065444B2, “Substituted tetrazolo[1,5-a]pyrazines and tetrazolo[1,5-c]pyrimidines as adenosine receptor antagonists” (Crossignal Therapeutics, Inc., priority 2021, dated 2024).

Molecules are shown by their SMILES.

Chain of human adenosine A2a receptor (P29274 whole entry): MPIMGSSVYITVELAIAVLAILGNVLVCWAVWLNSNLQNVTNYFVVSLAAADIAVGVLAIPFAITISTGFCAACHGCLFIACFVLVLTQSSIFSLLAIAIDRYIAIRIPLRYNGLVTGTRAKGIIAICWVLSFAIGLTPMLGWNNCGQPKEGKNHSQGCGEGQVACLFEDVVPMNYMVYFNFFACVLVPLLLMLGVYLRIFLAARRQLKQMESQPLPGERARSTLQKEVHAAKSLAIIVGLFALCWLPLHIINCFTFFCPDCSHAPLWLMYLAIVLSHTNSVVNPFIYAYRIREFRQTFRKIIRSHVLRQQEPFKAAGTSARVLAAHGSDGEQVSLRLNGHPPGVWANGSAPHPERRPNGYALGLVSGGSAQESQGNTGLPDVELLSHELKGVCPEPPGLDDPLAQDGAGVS

As for `Cc1ccnc2ccc(-c3c(-c4ccc(F)cc4)nc(N)n4nnnc34)cc12` [1-36, 7-(4-fluorophenyl)-8-(4-methylquinolin-6-yl)tetrazolo[1,5-c]pyrimidin-5-amine], the 50% inhibitory concentration (IC50) was 100 to 1000 nM in assay [1] and below 100 nM in assay [2] (setting [3]).

Take `Cc1c(C#N)cccc1-c1cc(-c2cn(Cc3cccc(C(C)(C)O)n3)nn2)nc(N)n1` [AB928, reference compound]: the results for the IC50 in assay [1], in assay [2] (setting [3]) and in assay [2] (setting [4]) were above 1000 nM, 100 to 1000 nM and above 1000 nM, respectively.

For the molecule `Cc1ccnc2ccc(-c3c(-c4ccc(F)cc4F)nc(N)c4nnnn34)cc12` [1-43, 6-(2,4-difluorophenyl)-5-(4-methylquinolin-6-yl)tetrazolo[1,5-a]pyrazin-8-amine], the inhibition at 10 µM in assay [1] and in assay [2] was below 25% each time. The molecule also gave a concentration for half-maximal inhibition (IC50) in assay [2] (setting [3]) below 100 nM.

As for `Cc1ccc(-c2nc(N)nc3c2nnn3Cc2cccc(CO[C@H]3CCOC3)n2)o1` [CPI-444, reference compound], the inhibition at 10 µM in assay [1] was below 25%. Besides, the “A2a @ 100 μM Adenosine (A2a cAMP IC50)” value in assay [2] (HEK293 cells stably expressing human A2a, 100 μM adenosine, 1 hour compound treatment, 10 µM) is recorded as “NR (“NR” indicates A2a or A2b mean inhibition is <25% at the top concentration)”.

`Cn1cnc2ccc(-c3c(-c4ccc(F)cc4)nc(N)c4nnnn34)cc21` [1-13, 6-(4-fluorophenyl)-5-(1-methyl-1H-benzo[d]imidazol-6-yl)tetrazolo[1,5-a]pyrazin-8-amine]: the results for the half-inhibitory concentration (IC50) in assay [1], in assay [2] (setting [3]) and in assay [2] (setting [4]) were 100 to 1000 nM, below 100 nM and 100 to 1000 nM, respectively.

Take `COc1ccc(-c2nc(N)c3nnnn3c2-c2ccc3nccc(C)c3c2)cc1` [1-38, 6-(4-methoxyphenyl)-5-(4-methylquinolin-6-yl)tetrazolo[1,5-a]pyrazin-8-amine]: in assay [1], the inhibition at 10 µM was below 25%. Moreover, the IC50 in assay [2] (setting [3]) lay within 100 to 1000 nM.

As for `Nc1nc(-c2ccc(F)cc2)c(-c2ccc3ncc(CO)n3c2)n2nnnc12` [1-20, (6-(8-amino-6-(4-fluorophenyl)tetrazolo[1,5-a]pyrazin-5-yl)imidazo[1,2-a]pyridin-3-yl)methanol], the IC50 in assay [1] is 100 to 1000 nM; in assay [2] (setting [3]), below 100 nM; in assay [2] (setting [4]) it was above 1000 nM.

As for `COc1ccc(-c2nc(N)n3nnnc3c2-c2ccc3ncc(C)n3c2)cc1` [1-57, 7-(4-methoxyphenyl)-8-(3-methylimidazo[1,2-a]pyridin-6-yl)tetrazolo[1,5-c]pyrimidin-5-amine], the values for the IC50 in assay [1], in assay [2] (setting [3]) and in assay [2] (setting [4]) were 100 to 1000 nM, 100 to 1000 nM and above 1000 nM, respectively.

`Cc1cnc2ccc(-c3c(-c4ccc(F)cc4)nc(N)c4nnnn34)cn12` [1-7, 6-(4-fluorophenyl)-5-(3-methylimidazo[1,2-a]pyridin-6-yl)tetrazolo[1,5-a]pyrazin-8-amine]: the figures for the IC50 in assay [1], in assay [2] (setting [3]) and in assay [2] (setting [4]) were 100 to 1000 nM, below 100 nM and 100 to 1000 nM, respectively.

On to `Cc1ccnc2ccc(-c3c(-c4ccc(F)cc4)nc(N)c4nnnn34)cc12` [1-6, 6-(4-fluorophenyl)-5-(4-methylquinolin-6-yl)tetrazolo[1,5-a]pyrazin-8-amine], for which the inhibition at 10 µM in assay [1] is below 25%. The concentration for half-maximal inhibition (IC50) in assay [2] (setting [3]) was below 100 nM.

As for `Cc1cnc2ccc(-c3c(-c4ccc(F)cc4)nc(N)n4nnnc34)cn12` [1-25, 7-(4-fluorophenyl)-8-(3-methylimidazo[1,2-a]pyridin-6-yl)tetrazolo[1,5-c]pyrimidin-5-amine], the figures for the half-inhibitory concentration (IC50) in assay [1], in assay [2] (setting [3]) and in assay [2] (setting [4]) were 100 to 1000 nM, below 100 nM and 100 to 1000 nM, respectively.

In the case of `Nc1nc(-c2ccc(F)cc2)c(-c2ccc3ncc(C(F)F)n3c2)n2nnnc12` [1-48, 5-(3-(difluoromethyl)imidazo[1,2-a]pyridin-6-yl)-6-(4-fluorophenyl)tetrazolo[1,5-a]pyrazin-8-amine], the IC50 in assay [1], in assay [2] (setting [3]) and in assay [2] (setting [4]) was 100 to 1000 nM each time.

For `Cc1cc(-c2c(-c3cccc(F)c3)nc(N)c3nnnn23)cc(Cl)n1` [1-27, 5-(2-chloro-6-methylpyridin-4-yl)-6-(3-fluorophenyl)tetrazolo[1,5-a]pyrazin-8-amine], in assay [2] (setting [3]), the 50% inhibitory concentration (IC50) lay within 100 to 1000 nM.

With `Nc1nc(-c2ccc(F)cc2)c(-c2cc(Cl)c3nccn3c2)n2nnnc12` [1-17, 5-(8-chloroimidazo[1,2-a]pyridin-6-yl)-6-(4-fluorophenyl)tetrazolo[1,5-a]pyrazin-8-amine], in assay [2] (setting [3]), the 50% inhibitory concentration (IC50) was in the range of 100 to 1000 nM. For the same molecule, the inhibition at 10 µM in assay [2] is below 25%.

In assay [2] (setting [3]), `Nc1nc(-c2ccc(F)cc2)c(-c2ccc3ncc(Cl)n3c2)n2nnnc12` [1-23, 5-(3-chloroimidazo[1,2-a]pyridin-6-yl)-6-(4-fluorophenyl)tetrazolo[1,5-a]pyrazin-8-amine] registered an IC50 below 100 nM.

As for `Cc1cc(Cl)cc(-c2c(-c3ccc(F)cc3)nc(N)c3nnnn23)c1` [1-3, 5-(3-chloro-5-methylphenyl)-6-(4-fluorophenyl)tetrazolo[1,5-a]pyrazin-8-amine], in assay [2] (setting [3]), the 50% inhibitory concentration (IC50) is above 1000 nM.

`Nc1nc(-c2ccc(F)cc2)c(-c2cc(F)c3nccn3c2)n2nnnc12` [1-14, 5-(8-fluoroimidazo[1,2-a]pyridin-6-yl)-6-(4-fluorophenyl)tetrazolo[1,5-a]pyrazin-8-amine] returned a concentration for half-maximal inhibition (IC50) in assay [2] (setting [3]) of 100 to 1000 nM. In assay [2], the inhibition at 10 µM is below 25%.

Regarding `Nc1nc(-c2ccc(F)cc2)c(-c2cc(Cl)nc(C(F)(F)F)c2)c2nnnn12` [1-34, 8-(2-chloro-6-(trifluoromethyl)pyridin-4-yl)-7-(4-fluorophenyl)tetrazolo[1,5-c]pyrimidin-5-amine], the inhibition at 10 µM in assay [1] was below 25%. Further, the IC50 is 100 to 1000 nM in assay [2] (setting [3]) and above 1000 nM in assay [2] (setting [4]).

Turning to `Nc1nc(-c2ccc(F)cc2)c(-c2cc3cnccc3s2)n2nnnc12` [1-16, 6-(4-fluorophenyl)-5-(thieno[3,2-c]pyridin-2-yl)tetrazolo[1,5-a]pyrazin-8-amine], the IC50 in assay [2] (setting [3]) is 100 to 1000 nM. Besides, the inhibition at 10 µM in assay [2] was below 25%.

Take `Nc1nc(-c2ccc(F)cc2)c(-c2ccc3nc[nH]c3c2)c2nnnn12` [1-42, 8-(1H-benzo[d]imidazol-6-yl)-7-(4-fluorophenyl)tetrazolo[1,5-c]pyrimidin-5-amine]: the concentration for half-maximal inhibition (IC50) in assay [2] (setting [3]) was in the range of 100 to 1000 nM.

Take `Cc1cnc2ccc(-c3c(-c4ccc(C#N)cc4)nc(N)c4nnnn34)cn12` [1-51, 4-(8-amino-5-(3-methylimidazo[1,2-a]pyridin-6-yl)tetrazolo[1,5-a]pyrazin-6-yl)benzonitrile]: the half-inhibitory concentration (IC50) in assay [2] (setting [3]) lay in the range of 100 to 1000 nM.

In general, IC50 refers to the concentration that gives 50% inhibition. Higher therefore signals weaker potency.
